Measurements: patent US8314068B2, “P2X7 inhibition of epithelial cancers and papillomas” (University Hospitals of Cleveland, priority 2009, dated 2012)
Entries after “also recorded” stand apart in the source; their conditions may differ.

How the values were obtained:
[1] = system: mouse wild-type normal keratinocytes; test: Apoptosis in cultured mouse wild-type keratinocytes; type: cell-based; settings: 8 hours
mouse skin [2] = test: Local BzATP on normal mouse dorsal skin, 4 weeks (tolerability, apoptosis); type: in vivo
Description: BzATP (100 μM in 200 μl [20 nmol, 14.3 μg, 1.0 μg/cm^2]), was applied twice weekly for 4 weeks on the posterior region of the shaved dorsal skin. The concentration/dose of BzATP and frequency of treatments were chosen based on the above discussed cell culture data. Each animal served as its own control by having vehicle-containing solution applied twice weekly for 4 weeks on the anterior region of the shaved dorsal skin.
(§1) TUNEL assays in tissues cross sections were performed using DeadEnd™ Fluorometric TUNEL System (Promega, Madison, Wis.) according to the manufacturer's protocol. For TUNEL-P2X7 co-staining, tissue cross sections were first assayed for TUNEL, followed by P2X7 immunostaining.
(§2) Experiments using mice were done according to an approved CWRU IACUC IRB protocol [2006-0141]. Experiments utilized 6-8 weeks old FVB female mice (obtained from Charles River, Wilmington, Mass.). The animal's dorsal skin (about 3×5 cm) was shaved using Oster animal clipper (Mountain Home, Ark.) followed by weekly application of Nair® hair remover lotion. Treatments included the application of one or more of the following drugs, directly onto the shaved dorsal skin: DMBA (50 μg/200 μl acetone [950 μM, 190 nmol, 3.3 μg/cm^2]); TPA (3 μg/200 μl acetone [20 μM, 4 nmol, 0.2 μg/cm^2]); BzATP (14.3 μg/200 μl of 2.3/1 vol/vol solution of propylene-glycol [PG]/ethanol [EtOH][100 μM, 20 nmol, 1.0 μg/cm^2]); or the BzATP vehicle only (200 μl of PG/EtOH). DMBA was applied once, while TPA and BzATP were applied twice a week. Skin neoplasia in the mice were induced by the “Two-Step” method, which involved tumor initiation by local treatment with 7,12-dimethylbenz(a)anthracene (DMBA), followed by tumor promotion with local treatment of 12-O-tetradecanoylphorbol-13-acetate (TPA). Guo et al., “Disruption of EphA2 receptor tyrosine kinase leads to increased susceptibility to carcinogenesis in mouse skin” Cancer Res 2006, 66:7050-7058. The concentration/dose of BzATP and frequency of treatments were chosen based on data in cultured cells (supra).
The shaved dorsal skin was divided into two equal anterior and posterior areas. Each animal was treated with BzATP applied locally twice a week for […] on the anterior skin area; vehicle only was applied in parallel twice a week for 4 weeks on the posterior skin area. At the end of the experiment animals were euthanized by cervical dislocation and dorsal skin strips were obtained from each animal from the anterior and posterior skin areas for microscopic H&E tissue evaluation and P2X7 immunostaining.

[3] = system: human normal keratinocytes; test: Apoptosis in cultured human normal keratinocytes; type: cell-based; settings: BzATP 100 μM with ATP 1 μM or 250 μM
Description: Primary cultures of human normal keratinocytes were generated from discarded foreskins. […] Apoptosis may be quantified in terms of percent solubilized DNA (Wang et al, 2004a), or by using the commercial cell-death detection ELISA kit (Roche Applied Science, Nutley, N.J.) (Feng et al, 2006).

P2X7 receptor = settings: cited from earlier work
[4] = system: DMBA/TPA-induced skin papillomas and squamous spindle-cell carcinomas; test: DMBA/TPA mouse skin papilloma and cancer model, 28 weeks (Experiment-4); type: in vivo
[5] = biological solutions, range of temperatures and pH; cited from earlier work
WT-MDCK cells = test: Apoptosis in wild-type MDCK cells lacking P2X7; type: cell-based, canine; settings: 100 μM, 8 hrs
Description: Human epidermal squamous cell carcinoma-9 (SCC-9) cells and Madin Darby canine kidney cells (MDCK, strain II) were obtained from the ATCC. […] Apoptosis may be quantified in terms of percent solubilized DNA (Wang et al, 2004a), or by using the commercial cell-death detection ELISA kit (Roche Applied Science, Nutley, N.J.) (Feng et al, 2006). […] The sequences of the 20-mer ASO that would hybridize to the coding region of exon 7 (nt 724-741), and the RCO were as follows: […] In the RCO, the antisense sequence was randomly replaced with adenine and thymine residues so that the oligonucleotides had the same length (20-mer) and GC content (33%) as the ASO.

[6] = system: cancer ectocervical, endocervical, endometrial cells and cancer keratinocytes; settings: fold lesser apoptosis after BzATP; cited from earlier work
[7] = system: DMBA/TPA-induced skin papillomas; test: DMBA/TPA mouse skin papilloma model, 12 weeks (Experiment-3); type: in vivo
mouse skin [8] = test: Local BzATP on normal mouse dorsal skin, 16 weeks (safety, TUNEL, Ki67); type: in vivo
Description: BzATP was applied locally twice a week on the surface of the shaved dorsal skin for a total of 16 weeks. The control group included mice that had their back shaved and were treated only with the vehicle. […] See, FIGS. 14A & 14C versus FIGS. 14B & 14D, respectively.
Image-analysis of immunofluorescence data was described (Li et al, 2007). Representative fields were captured and saved in Adobe Photoshop. Pictures were scanned using UN-SCAN-IT (Silk Scientific, Orem Utah) by choosing 3-5 representative fields for each picture. Light intensity in each field was digitized and average pixel density per field was determined using the program software.
as §1, §2
From each animal blood samples were obtained from the retro-bulbar venous complex for ALT (SGPT) and AST (SGOT) assays. In addition, dorsal skin strips were obtained from each animal for microscopic H&E tissue evaluation, Ki67 immunostaining, and in-situ detection of DNA fragmentation by the TUNEL method.
Assays used Liquid ALT and Liquid AST reagent sets (Cat # A7526-150a and A7561-150, respectively) obtained from Pointe Scientific (Canton Mich.), and were performed according to the supplier instructions.

In the case of Nc1ncnc2c1ncn2[C@@H]1O[C@H](COP(=O)(O)OP(=O)(O)OP(=O)(O)O)[C@@H](OC(=O)c2ccc(C(=O)c3ccccc3)cc2)[C@H]1O [BzATP, 3′-O-(4-benzoylbenzoyl)adenosine triphosphate], the “concentration of maximal apoptosis effect” value [1] is reported as 100 to 250 µM, the “lowest BzATP level at which apoptosis effects began” value [1] is reported as 50 nM and the EC50 ([1]; Mus musculus, Keratinocyte, read-out: estimated EC50 of apoptosis augmentation) is reported as roughly 10 µM. The “physical characteristics, behavior, feeding habits, weights” value (mouse skin [2]; 1.0 μg/cm^2 twice weekly) was “no noticeable changes”, the “epidermal apoptosis (nuclear morphology, TUNEL)” value (mouse skin [2]; twice weekly) was “augmented apoptosis of epidermal cells; also recorded: numerous epidermal basal/parabasal cells and epidermal hair shaft cells stained TUNEL positive” and the “histological H&E evaluation, treated versus control skin” value (mouse skin [2]; twice weekly) was “no differences”. The “visible effect on the dorsal skin” value (mouse skin [2]; twice weekly) was “no visible effect on the dorsal skin”, the “combined pro-apoptotic effect of BzATP with ATP” value [3] was “non-additive” and the EC50 (P2X7 receptor) was 35 µM. For the same compound, the “potency at the P2X7 receptor relative to ATP” value (P2X7 receptor; greater potency than ATP) was 5-10 fold, the “inhibition of papilloma and skin cancer formation” value ([4]; 1 μg/cm^2 BzATP applied locally twice weekly) was 50% and the “effect on P2X7 receptor expression in skin cancers” value ([4]; immunoreactivity in cross sections) was “did not effect P2X7 receptor expression in cancer cells”. For the same compound, the “overall survival rates versus DMBA/TPA group” value ([4]; log-rank test) was “did not differ statistically”, the “TUNEL staining in papillomas and cancer tissues versus DMBA/TPA group” value ([4]; mouse, in vivo) was “more intense” and the “development of cancerous lesions (time-to-event) versus DMBA/TPA group” value ([4]; mouse, in vivo) was “significantly slower and lower”. The “proportion of living animals with cancerous lesions >200 mm^3, difference to DMBA/TPA group” value ([4]; mouse, in vivo) was “did not reach statistical significance”, the “proportion of living animals having a papilloma” value ([4]; week 5, DMBA/TPA+BzATP group) was 48±12% and the “papillomas per animal (mean±SD)” value ([4]; week 10, DMBA/TPA+BzATP group) was 1.2±0.4. The “mean total papillomas size per animal (mean±SD)” value ([4]; week 12, DMBA/TPA+BzATP group) was 3.4±1.0 mm^3, the “proportion of animals with cancers” value ([4]; week 14, mice co-treated with BzATP) was 50% and the “proportion of living animals with cancerous lesions” value ([4]; week 28, DMBA/TPA+BzATP group) was 43±9%. The “proportion of living animals with cancerous lesions >10 mm^3” value ([4]; week 28, DMBA/TPA+BzATP group) was 16±4%, the “lowering of incidence of cancerous lesions” value ([4]; week 28, co-treated with BzATP) was “about 50%” and the “lowering of incidence of papillomas” value ([4]; weeks 0-12, co-treated with BzATP) was “about 50%”. For the same compound, the “effect on number of cancerous lesions per animal” value ([4]; weeks 14-28) was “little effect”, the stability [5] was “relatively stable compound in biological solutions and across a broad range of temperatures and pH” and the BzATP-induced apoptosis (WT-MDCK cells) was “did not induce apoptosis”. For the same compound, the “apoptosis in cancer cells relative to the respective normal cells” value [6] was 2-5 fold, the “TUNEL staining of papilloma tissues” value ([7]; biopsy at week 10, basal/parabasal regions) was “intense TUNEL staining” and the “decrease of mean number of papillomas per animal” value ([7]; versus DMBA/TPA group) was “about 25%”. For the same compound, the “decrease of mean papilloma size” value ([7]; versus DMBA/TPA group) was “about 45%”, the “animals having at least one papilloma” value ([7]; week 6, DMBA/TPA+BzATP group) was 53.8% and the “papillomas per animal (mean±SEM)” value ([7]; week 10, DMBA/TPA+BzATP group) was 1.23±0.34. For the same compound, the “animals with at least one skin papilloma” value ([7]; week 12, DMBA/TPA+BzATP group) was 78%, the “mean papilloma size per animal (mean±SEM)” value ([7]; week 12, DMBA/TPA+BzATP group) was 3.46 ±0.73 mm and the “Ki67 immunoreactivity versus control group” value (mouse skin [8]; 16 weeks) was “no significant differences in Ki67 immunoreactivity”. For the same compound, the “histological evaluation of dorsal skin versus control group” value (mouse skin [8]; 16 weeks) was “no differences”, the “mean serum levels of ALT (SGPT) and AST (SGOT)” value (mouse skin [8]; 16 weeks) was “in the normal range for the mouse” and the “TUNEL pixel density, hair-shaft cross sections” value (mouse skin [8]; 16 weeks, n=3) was 6.1±0.8. The “TUNEL staining mean pixel density (±SD), epidermis” value (mouse skin [8]; 16 weeks, n=3) was 5.2±0.3, the “thinning or ulceration of the skin” value (mouse skin [8]; 16 weeks, normal mice) was “did not produce a thinning or ulceration of the skin” and the “local or systemic adverse effects of local BzATP treatment” value (mouse skin [8]; mice, applied locally on the skin) was “did not result in any local or systemic adverse events; also recorded: no adverse systemic effects; also recorded: no significant effect on the behavior of the animals, feeding habits, body weight, and liver functions; also recorded: did not produce local or systemic adverse effects”. For the same compound, the “behavior, feeding habits, body weights” value (mouse skin [8]; twice a week, 16 weeks, local) was “no effects were observed” and the “gross appearance of the treated skin” value (mouse skin [8]; twice a week, 16 weeks, local) was “no noticeable effect”.
